Reference: PubChem BioAssay (NCI)
Where “and” joins values, the source holds several entries; their conditions need not be identical. Equal values may be shown once.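 Compound exposure: 48 hours, 5 concentrations, 96-well plates. Here, GI50 denotes the concentration required for 50% inhibition of growth. TGI denotes the concentration required for complete inhibition of growth.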

How the values were obtained:
Assay in all cases: NCI-60 cell line screen, 48 h
NCI-H226 lung = system: NCI-H226 lung
OVCAR-8 ovarian = system: OVCAR-8 ovarian
EKVX NSCLC = system: EKVX NSCLC
MOLT-4 leukemia = system: MOLT-4 leukemia
HCT-116 colon = system: HCT-116 colon
SF-268 CNS = system: SF-268 CNS
M14 melanoma = system: M14 melanoma
TK-10 renal = system: TK-10 renal
HCC-2998 colon = system: HCC-2998 colon
HCT-15 colon = system: HCT-15 colon
IGROV1 ovarian = system: IGROV1 ovarian
HOP-92 NSCLC = system: HOP-92 NSCLC
OVCAR-5 ovarian = system: OVCAR-5 ovarian
DU-145 prostate = system: DU-145 prostate
BT-549 breast = system: BT-549 breast

| Structure (SMILES) | TGI (NCI-H226 lung) | TGI (OVCAR-8 ovarian) | TGI (EKVX NSCLC) [µM] | TGI (MOLT-4 leukemia) [µM] | TGI (HCT-116 colon) | TGI (SF-268 CNS) | TGI (M14 melanoma) [µM] | TGI (TK-10 renal) [µM] | TGI (HCC-2998 colon) [µM] | TGI (HCT-15 colon) | TGI (IGROV1 ovarian) | TGI (HOP-92 NSCLC) | TGI (OVCAR-5 ovarian) | TGI (DU-145 prostate) [µM] | TGI (BT-549 breast) [µM] | GI50 (OVCAR-5 ovarian) [µM] | GI50 (NCI-H226 lung) [nM] | GI50 (SF-268 CNS) [nM] | GI50 (HOP-92 NSCLC) [nM] |
| --- | --- | --- | --- | --- | --- | --- | --- | --- | --- | --- | --- | --- | --- | --- | --- | --- | --- | --- | --- |
| O=C1N(Cl)C(=O)C(c2ccc(Cl)cc2)(c2ccc(Cl)cc2)N1Cl | > 100 µM | > 100 µM | > 100 | > 100 | > 100 µM | > 100 µM | > 100 | > 100 | > 100 | > 100 µM | > 100 µM | > 100 µM | – | – | – | – | – | – | – |
| S=C1NCCN1 | > 100 µM | > 100 µM | > 100 | > 100 | > 100 µM | > 100 µM | > 100 | > 100 | – | > 100 µM | > 100 µM | > 100 µM | > 100 µM | – | – | – | – | – | – |
| CCOC(=O)c1c(SC(=O)c2ccc(C(C)(C)C)cc2)n(-c2ccccc2)c(=S)n(-c2ccccc2)c1=O | > 100 µM | > 100 µM | > 100 | > 100 | > 100 µM | > 100 µM | > 100 | > 100 | > 100 | > 100 µM | > 100 µM | > 100 µM | > 100 µM | > 100 | – | – | – | – | – |
| C[n+]1c2ccccc2c(NCC(=O)O)c2ccccc21 | > 100 µM | > 100 µM | > 100 | > 100 | > 100 µM | > 100 µM | > 100 | > 100 | > 100 | > 100 µM | > 100 µM | – | > 100 µM | – | – | – | – | – | – |
| COc1cc2c(c(OC)c1O)-c1ccc(SC)c(=O)cc1C(NC(C)=O)CC2 (centres undefined) | > 16.7 µM | > 100 µM | > 100 | > 100 | 0.252 µM | > 100 µM | > 100 | > 100 | > 100 | > 100 µM | > 100 µM | > 100 µM | > 100 µM | – | – | – | – | – | – |
| NC(CCCCCCCCCCP(=O)(O)O)C(=O)O (centres undefined) | – | > 100 µM | > 100 | > 100 | > 100 µM | – | > 100 | > 100 | > 100 | > 100 µM | > 100 µM | > 100 µM | > 100 µM | > 100 | – | – | – | – | – |
| COc1ccc(/C=c2/sc3n(c2=O)C(c2ccccc2)C2(O)CCCCC2N=3)cc1 (centres undefined) | > 12.5 µM | > 12.5 µM | – | > 12.5 | > 12.5 µM | > 12.5 µM | > 12.5 | > 12.5 | > 12.5 | – | > 12.5 µM | – | > 12.5 µM | – | > 12.5 | – | – | – | – |
| CC1(C)CCc2ccc(OCCC(=O)O)cc2O1 | > 100 µM | > 100 µM | > 100 | > 100 | > 100 µM | > 100 µM | > 100 | – | – | > 100 µM | > 100 µM | > 100 µM | > 100 µM | – | – | – | – | – | – |
| C=C1C(=O)[C@@]23CC[C@H]4[C@@](C)(CCC[C@@]4(C)C(=O)OC)[C@@H]2CC[C@]1(O)C3 | 3.38 µM and 7.45 µM | 2.96 µM and 2.85 µM | 3.5 | 0.98 | 2.21 µM and 2.17 µM | 3 µM and 3.35 µM | – | – | 8.55 | 2.85 µM and 2.71 µM | 3.07 µM and 3 µM | 2.88 µM and 3.21 µM | 11.8 µM and 3.54 µM | – | – | 3.95 | 1780 | 1550 | 1480 |
| CN(C)CCCN1c2ccc([N+](=O)[O-])cc2CCc2cccc([N+](=O)[O-])c21 | 29.3 µM | 32.3 µM | 39.1 | 51.5 | 27.3 µM | 29 µM | 28 | 23.2 | 26.3 | 30.5 µM | 29.7 µM | 26.8 µM | 33.3 µM | 31.2 | – | – | – | – | – |
| CCCCCCNC(=O)C(C)C1CCC2(C)C=CC(=O)C(C)=C2C1O (centres undefined) | > 100 µM | > 100 µM | > 100 | > 100 | > 100 µM | > 100 µM | – | – | > 100 | > 100 µM | > 100 µM | > 100 µM | > 100 µM | – | – | – | – | – | – |
| N/C(=N\N=C/c1ccc(O)c(O)c1O)NO | > 77 µM | > 54.1 µM | > 100 | > 66.6 | > 59.6 µM | > 100 µM | – | – | 96.6 | 34.5 µM | > 100 µM | > 100 µM | > 73.6 µM | – | – | – | – | – | – |
| C/C=C/C(C#N)(/C=C/c1ccccc1)OP1(=O)OC(c2ccccc2)C(C)N1C (centres undefined) | – | 35.5 µM | 44.5 | 28.8 | 31.3 µM | 42.1 µM | 37.1 | 37.8 | 27.5 | – | 32.8 µM | 31.6 µM | 43.6 µM | 90.1 | – | – | – | – | – |
| O=C(Nc1ccccc1)OCCN=C1c2ccccc2C(Br)C(Br)c2ccccc21 (centres undefined) | 19.2 µM | 13 µM | 19.8 | 5.06 | 13.3 µM | 15.6 µM | 12.4 | 18.5 | 20.8 | > 24.2 µM | 10.6 µM | 16.1 µM | > 31.6 µM | 16 | – | – | – | – | – |
| Cc1c2n(c(=O)[nH]c1=O)C1OC(CO)C(O2)C1N=[N+]=[N-] (centres undefined) | > 100 µM | > 100 µM | > 100 | > 100 | > 100 µM | > 100 µM | – | > 100 | – | > 100 µM | > 100 µM | > 100 µM | – | – | – | – | – | – | – |
